Assay results taken from publication PMC11874377, “Fungal-derived methyldeoxaphomins target Plasmodium falciparum segregation through the inhibition of PfActin1” (Proceedings of the National Academy of Sciences of the …, 2025).
Where two headings read alike, the source gives them in different places.

Key:
Dd2-Pol δ parent line = assay: Resistant parasite phenotyping and cross resistance, SYBR green I EC50 assay, parent line; assay type: cell-based, Plasmodium falciparum; settings: strain Dd2-Pol δ -parent, read-out: EC50 (mean ± SEM)
Method: (§1) Cloning by limiting dilution was then performed to isolate individual lines from the bulk population. Due to the multiple mutations identified in the first biological replicate, we isolated four clones from this bulk culture as compared to two clones each from the second and third replicates. These clones were phenotyped via a SYBR green I-based dose–response assay (Table 2 and Fig. 2B). […] The DNA of these clones was then extracted and subjected to whole-genome sequencing.
(§2) Resistant parasite phenotyping and cross resistance measurement
(§3) The EC50 assay was performed at 1% parasitemia, 1% hematocrit with SYBR green I in 96-well plates. The highest final concentration of the methyldeoxaphomin NPDG-F was set at 100 μM. Briefly, the compound was subjected to a 3-fold serial dilution with ten dilution points. Three technical replicates were set up at each dilution point. The Dd2-Pol δ parent line and the resistant parasites at 2% hematocrit and 1% parasitemia were added to the drug media at 1:1 ratio. The plate was incubated at 37°C for 72 hours in a chamber filled with a hypoxic gas mixture (3% oxygen, 5% carbon dioxide, and 92% nitrogen). After incubation, the cells were lysis with lysis buffer (20 mM Tris-HCL, 0.08% saponin, 5 mM EDTA, and 0.8% Triton X-100) containing SYBR green I (10,000X, Thermo Fisher, cat # S7563) overnight. Fluorescence was measured at 485nm excitation and 530nm emission using a PHERAstar FSX plate reader (BMG Labtech, Germany). Dose response curves were graphed with Prism 9 Version 9.5.1.
3D structural analysis of the mutations and docking studies
The crystal structure of PfActin1 with accession number 6TU4 (resolution 2.60 Ang) (Vahokoski et al., 2022) was obtained from the Protein Data Bank (PDB). This structure of PfActin1 contains ligands Jasplakinolide and ADP with a coordinating magnesium ion.
Only chain A was used for the docking experiment. […] Schrodinger maestro software (Schrödinger, LLC) was used to build NPDG-F with the proper stereochemistry using the x-ray structure determined for analog NPDG-A (vide supra). […]

[1] = test system: in vitro evolved NPDG-F-resistant Dd2-Pol δ clones (PfActin1 mutations); assay: Resistant parasite phenotyping and cross resistance, SYBR green I EC50 assay, NPDG-F-resistant clones; assay type: cell-based, Plasmodium falciparum; settings: for EC50: read-out: EC50 (mean ± SEM)
Method: as §1
To investigate whether NPDG-F has the same mode of action as cytochalasin D, we tested our clones for sensitivity to both cytochalasin D and jasplakinolide.
as §2
as §3, with “9.5.1. […]” for “9.5.1.”

P. falciparum = assay: Isobologram assay with NPDG-F; assay type: cell-based, Plasmodium falciparum
Method: To further explore the relationship of NPDG-F with established actin-interfering drugs, an isobologram study was performed (Fig. 3). NPDG-F was added in combination with four inhibtors known to interfere with actin polymerization including a formin inhibitor SMIFH2, cofilin inhibitor SZ-3, F-actin targeting compound jasplakinolide, and G-actin targeting latrunculin B. The frontline antimalarial DHA was also added as a nonactin inhibitor control. After dose–response curves were generated (Fig. 3A), the fractional inhibitory concentrations (FICs) of NPDG-F and the combination drug were calculated and graphed. […]
Plasmodium blood stage culture
Parasite culture in the Chakrabarti lab was maintained following a modified Trager and Jensen protocol (Trager & Jensen, 1976) as previously described (Lee et al., 2021) with RPMI 1640 with 25 mM HEPES pH 7.4, 26 mM NaHCO3, 15 mg/L hypoxanthine, 0.5% Albumax II, 25 mg/L gentamycin, and 2% dextrose. Parasites were grown with human A+ erythrocytes obtained from Florida OneBlood. Cultures were kept in an incubator with 5% […]
Antiplasmodial activity screening
SYBR Green I-based fluorescence assay was performed as previously described (Lee et al., 2021) following protocols by Smilkstein et. al. (Smilkstein et al., 2004). Asynchronous Dd2 parasites were added to serially diluted compounds and incubated for 72 h at 5% CO2, 95% air at 37°C. Plates were then frozen at -80°C, thawed, and incubated for one hour with 1x SYBR Green I in a lysis buffer (20 mM Tris-HCL, 0.08% saponin, 5 mM EDTA, and 0.8% Triton X-100). Fluorescence was then read on a Synergy Neo2 multimode reader (BioTek Winsooki, VT). Compound dose response curves and EC50 determination was performed using CDD Vault normalized to 10 µM CQ and vehicle […]
For isobologram assessment, inhibitors were tested using a 1:2 dilution with starting concentrations selected as 40 nM for DHA, 100 µM Latrunculin B, 100 µM SMIFH2, and 40 nM for jasplakinolide. These concentrations were selected to provide 2-3 points above […]
EC50s. The test inhibitor methyldeoxaphomin NPDG-F was then added in combination with the aforementioned inhibitors at concentrations ranging from 10 to 0.3125 µM. Dose-response curves were then generated for the available conditions where EC50s could be determined. The fractional inhibitor concentration of both compounds was then determined as described (Fivelman et al., 2004) for the available points and graphed on a scale of 0-1 also using Graphpad Prism version 10. […]

barbed end of F-actin = settings: read-out: binding affinity Kd; cited from earlier work

Question: For `C/C1=C\[C@H](C)C[C@H](C)OC(=O)C[C@H](c2ccc(O)cc2)NC(=O)[C@@H](Cc2c(Br)[nH]c3ccccc23)N(C)C(=O)[C@H](C)NC(=O)[C@@H](C)C1` [Jasplakinolide, jasplakinolide], which EC50 (Dd2-Pol δ parent line) is on record?
Answer: Its EC50 is 25.1 ± 1.4 nM.

Question: What about the EC50 ([1]; clone 1-C7, A171S (8%), A171V (92%), I290L) of the same compound?
Answer: The EC50 was 25.2 ± 0.4 nM.

Question: What about the Fold change ([1]; clone 1-C7 vs Dd2-Pol δ parent) of the same compound?
Answer: Its Fold change is 1.0.

Question: And the EC50 ([1]; clone 1-D6, A171S (3%), A171V (97%), I290L)?
Answer: The EC50 was 27.6 ± 4 nM.

Question: What about the Fold change ([1]; clone 1-D6 vs Dd2-Pol δ parent) of the same compound?
Answer: The Fold change was 1.1.

Question: And the EC50 ([1]; clone 1-D7, A171S (22%), A171V (78%), I290L)?
Answer: Its EC50 is 25.9 ± 0.8 nM.

Question: And the Fold change ([1]; clone 1-D7 vs Dd2-Pol δ parent)?
Answer: The Fold change was 1.0.

Question: And the EC50 ([1]; clone 1-F3, A171S (4%), A171V (96%), I290L)?
Answer: The EC50 was 30.7 ± 3.2 nM.

Question: What about the Fold change ([1]; clone 1-F3 vs Dd2-Pol δ parent) of the same compound?
Answer: Its Fold change is 1.2.

Question: And the EC50 ([1]; clone 2-C4, A136S)?
Answer: Its EC50 is 22.4 nM.

Question: And the Fold change ([1]; clone 2-C4 vs Dd2-Pol δ parent)?
Answer: The Fold change was 0.9.

Question: What about the EC50 ([1]; clone 2-F5, A136S) of the same compound?
Answer: The EC50 was 25.1 ± 2.9 nM.

Question: And the Fold change ([1]; clone 2-F5 vs Dd2-Pol δ parent)?
Answer: Its Fold change is 1.0.

Question: What about the EC50 ([1]; clone 3-C3, A136S) of the same compound?
Answer: Its EC50 is 24 nM.

Question: What about the Fold change ([1]; clone 3-C3 vs Dd2-Pol δ parent) of the same compound?
Answer: The Fold change was 1.0.

Question: What about the EC50 ([1]; clone 3-C5, A136S) of the same compound?
Answer: The EC50 was 25.4 ± 2.1 nM.

Question: And the Fold change ([1]; clone 3-C5 vs Dd2-Pol δ parent)?
Answer: The Fold change was 1.0.

Question: And the “fractional inhibitory concentration (FIC)” value (P. falciparum; combination with NPDG-F)?
Answer: The value was “highest FIC values overall”.

Question: And the IC50 (P. falciparum; single compounds, dose–response, Fig. 3A, read-out: Mean IC50 ± SEM)?
Answer: The IC50 was 58 ± 17 nM.

Question: With `C=C1[C@@H](C)[C@H]2[C@H](Cc3ccccc3)NC(=O)[C@]23[C@H](OC(C)=O)/C=C/[C@@](C)(O)C(=O)[C@@H](C)C/C=C/[C@H]3[C@@H]1O` [Cytochalasin D, cytochalasin D] as the compound, how does the EC50 (Dd2-Pol δ parent line; Plasmodium falciparum) read?
Answer: Its EC50 is 17.3 ± 0.5 nM.

Question: And the “cross-resistance of NPDG-F-resistant clones” value [1]?
Answer: Its value is “cross-resistant”.

Question: And the “average EC50 shift, clones from flasks 2 and 3” value ([1]; A136S)?
Answer: Its value is 3.9 fold.

Question: And the “average EC50 shift, clones from flask 1” value ([1]; A171V/S and I290L clones)?
Answer: The value was 20 fold.

Question: What about the EC50 ([1]; Plasmodium falciparum, DD2, clone 1-C7, A171S (8%), A171V (92%), I290L) of the same compound?
Answer: Its EC50 is 302 ± 8.8 nM.

Question: What about the EC50 ([1]; Plasmodium falciparum, DD2, clone 1-D6, A171S (3%), A171V (97%), I290L) of the same compound?
Answer: The EC50 was 317 ± 9.2 nM.

Question: And the EC50 ([1]; Plasmodium falciparum, DD2, clone 1-D7, A171S (22%), A171V (78%), I290L)?
Answer: The EC50 was 402 ± 7 nM.

Question: What about the EC50 ([1]; Plasmodium falciparum, DD2, clone 1-F3, A171S (4%), A171V (96%), I290L) of the same compound?
Answer: Its EC50 is 367 ± 7.8 nM.

Question: What about the EC50 ([1]; Plasmodium falciparum, DD2, clone 2-C4, A136S) of the same compound?
Answer: The EC50 was 60.8 ± 0.8 nM.

Question: What about the EC50 ([1]; Plasmodium falciparum, DD2, clone 2-F5, A136S) of the same compound?
Answer: Its EC50 is 71.3 ± 1.7 nM.

Question: And the EC50 ([1]; Plasmodium falciparum, DD2, clone 3-C3, A136S)?
Answer: Its EC50 is 66.4 ± 0.2 nM.

Question: What about the EC50 ([1]; Plasmodium falciparum, DD2, clone 3-C5, A136S) of the same compound?
Answer: Its EC50 is 73.2 ± 0.7 nM.

Question: And the Fold change ([1]; clone 1-C7 vs Dd2-Pol δ parent)?
Answer: The Fold change was 17.5.

Question: And the Fold change ([1]; clone 1-D6 vs Dd2-Pol δ parent)?
Answer: The Fold change was 18.3.

Question: And the Fold change ([1]; clone 1-D7 vs Dd2-Pol δ parent)?
Answer: The Fold change was 23.3.

Question: What about the Fold change ([1]; clone 1-F3 vs Dd2-Pol δ parent) of the same compound?
Answer: Its Fold change is 21.2.

Question: And the Fold change ([1]; clone 2-C4 vs Dd2-Pol δ parent)?
Answer: The Fold change was 3.5.

Question: And the Fold change ([1]; clone 2-F5 vs Dd2-Pol δ parent)?
Answer: The Fold change was 4.1.

Question: And the Fold change ([1]; clone 3-C3 vs Dd2-Pol δ parent)?
Answer: The Fold change was 3.8.

Question: And the Fold change ([1]; clone 3-C5 vs Dd2-Pol δ parent)?
Answer: Its Fold change is 4.2.

Question: And the Kd (barbed end of F-actin)?
Answer: The Kd was about 2 nM.
